Patent US20240116877A1, “KIT KINASE INHIBITORS AND METHODS OF USE THEREOF” (Deciphera Pharmaceuticals, LLC, priority 2021, published 2024)
Read-outs that look alike come from different tables or passages of the source.

Assays:
GIST 430 cells = experiment: GIST 430 Cell Proliferation Assay (resazurin); format: cell-based; conditions: Homo sapiens; GIST430 cell proliferation
Procedure, shortened: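 Five thousand cells per well were exposed to serially diluted compound in complete growth medium for 115 h at 37 degrees Celsius, 5% CO2. Resazurin was then added for a further 5 h, fluorescence read at 540 nm excitation/600 nm emission, and IC50 values calculated.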

c-KIT kinase (uKIT) = c-KIT kinase (uKIT) (Homo sapiens (Human), UniProt P10721); experiment: Biochemical Assay for uKIT (coupled pyruvate kinase/lactate dehydrogenase assay); conditions: Inhibition of biochemical activity of uKIT kinase; 1 mM ATP
Procedure, shortened: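 IC50 from percent inhibition of reaction rate over 2-3 h, relative to no-compound and known-inhibitor controls. KIT enzyme (16 nM or 4.36 nM, two sequences) ran with 1 mM ATP and 0.7 mg/mL PE4Y in Tris pH 7.5, 30° C; ATP turnover coupled to NADH loss at 340 nm.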

Ba/F3 KIT mutant cells = experiment: Ba/F3 mutant KIT Cell Proliferation Assays (resazurin); format: cell-based; conditions: Mus musculus, BaF3
Procedure, shortened: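 IC50 values come from resazurin fluorescence (ex 540, em 600) after 5 h dye exposure, added as a 440 μM solution. Cells were IL-3-independent Ba/F3 expressing mutant KIT from a lentiviral vector, puromycin-selected.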

[1] = Ba/F3 KIT AYdup-V654A mutant cell proliferation, read-out: AYdup-V654A IC50
[2] = Ba/F3 KIT exon11del-V654A mutant cell proliferation, read-out: exon11del-V654A IC50
[3] = Ba/F3 KIT exon11del-Y823D mutant cell proliferation, read-out: exon11del-Y823D IC50
[4] = Ba/F3 KIT AYdup mutant cell proliferation, read-out: AYdup IC50
[5] = Ba/F3 KIT AYdup-D816G mutant cell proliferation, read-out: AYdup-D816G IC50

Sequence of c-KIT kinase (uKIT) (P10721 other isoform, or with tags, fused parts or gaps): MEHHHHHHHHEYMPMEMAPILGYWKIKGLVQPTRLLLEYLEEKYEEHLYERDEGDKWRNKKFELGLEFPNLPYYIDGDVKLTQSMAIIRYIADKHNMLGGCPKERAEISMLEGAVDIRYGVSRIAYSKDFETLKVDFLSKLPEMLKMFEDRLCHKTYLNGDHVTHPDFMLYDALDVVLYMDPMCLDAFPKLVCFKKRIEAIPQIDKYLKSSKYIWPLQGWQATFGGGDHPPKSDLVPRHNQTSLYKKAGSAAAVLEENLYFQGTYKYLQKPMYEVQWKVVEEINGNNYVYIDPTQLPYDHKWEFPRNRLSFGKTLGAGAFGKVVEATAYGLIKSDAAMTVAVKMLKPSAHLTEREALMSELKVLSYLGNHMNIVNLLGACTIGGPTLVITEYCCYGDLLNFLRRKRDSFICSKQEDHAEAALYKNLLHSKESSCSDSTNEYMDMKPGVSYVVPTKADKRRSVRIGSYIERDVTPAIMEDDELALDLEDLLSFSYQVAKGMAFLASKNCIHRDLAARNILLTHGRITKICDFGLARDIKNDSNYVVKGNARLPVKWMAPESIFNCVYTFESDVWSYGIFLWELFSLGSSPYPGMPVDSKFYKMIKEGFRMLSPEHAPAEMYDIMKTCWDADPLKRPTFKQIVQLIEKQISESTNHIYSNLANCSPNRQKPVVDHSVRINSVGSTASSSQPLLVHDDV

Row | SMILES | IC50 (GIST 430 cells) [nM] | IC50 (c-KIT kinase (uKIT)) [nM] | IC50 (Ba/F3 KIT mutant cells; [1]) [nM] | IC50 (Ba/F3 KIT mutant cells; [2]) [nM] | IC50 (Ba/F3 KIT mutant cells; [3]) [nM] | IC50 (Ba/F3 KIT mutant cells; [4]) [nM] | IC50 (Ba/F3 KIT mutant cells; [5]) [nM]
1 | CCN(C(=O)CC(=O)Nc1ccc(Nc2ncnc3cc(OCCOC)cc(F)c23)cc1)C(C)C [Example 146] | 100 to 1000 | 100 to 1000 | 100 to 1000 | 10 to 100 | – | – | –
2 | CNC(=O)COc1cc(F)c2c(Nc3ccc(NC(=O)NCCC(C)(C)F)cc3)ncnc2c1 [Example 147] | 100 to 1000 | 10 to 100 | 100 to 1000 | 10 to 100 | > 1000 | – | –
3 | CN(C)C(=O)COc1cc(F)c2c(Nc3ccc(NC(=O)NCCC(C)(C)F)cc3)ncnc2c1 [Example 148] | 100 to 1000 | 10 to 100 | 100 to 1000 | 10 to 100 | – | – | –
4 | CC(C)(F)CCNC(=O)Nc1ccc(Nc2ncnc3cc(OC[C@@H]4CCOC4)cc(F)c23)cc1 [Example 149] | 10 to 100 | ≤ 10 | 10 to 100 | 10 to 100 | 10 to 100 | – | –
5 | CC(C)(F)CCNC(=O)Nc1ccc(Nc2ncnc3cc(OCCN4CCCC4)cc(F)c23)cc1 [Example 150] | 10 to 100 | ≤ 10 | 10 to 100 | 10 to 100 | 100 to 1000 | ≤ 10 | 10 to 100
6 | CC(C)(F)CCNC(=O)Nc1ccc(Nc2ncnc3cc(OC[C@H]4CCOC4)cc(F)c23)cc1 [Example 151] | 10 to 100 | ≤ 10 | 10 to 100 | 10 to 100 | 100 to 1000 | – | –
7 | COCCOc1cc(F)c2c(Nc3ccc(NC(=O)CC(=O)N4CCC(C)(C)CC4)cc3)ncnc2c1 [Example 152] | 10 to 100 | 10 to 100 | 10 to 100 | 10 to 100 | 100 to 1000 | – | –
8 | COCCOc1cc(F)c2c(Nc3ccc(NC(=O)CC(=O)N4CCC(C(F)(F)F)C4)cc3)ncnc2c1 (stereo not drawn) [Example 153] | 10 to 100 | 10 to 100 | 10 to 100 | 100 to 1000 | 100 to 1000 | – | –
9 | COCCOc1cc(F)c2c(Nc3ccc(NC(=O)CC(=O)N4CCOCC4(C)C)cc3)ncnc2c1 [Example 154] | 10 to 100 | 10 to 100 | 100 to 1000 | 100 to 1000 | 100 to 1000 | – | –
10 | COC[C@@H](C)Oc1cc(F)c2c(Nc3ccc(NC(=O)NCCC(C)(C)F)cc3)ncnc2c1 [Example 155] | 100 to 1000 | ≤ 10 | 10 to 100 | 10 to 100 | 100 to 1000 | – | –
11 | CO[C@H](C)COc1cc(F)c2c(Nc3ccc(NC(=O)NCCC(C)(C)F)cc3)ncnc2c1 [Example 156] | 10 to 100 | ≤ 10 | 10 to 100 | 10 to 100 | 10 to 100 | ≤ 10 | 10 to 100
12 | COC[C@H](C)Oc1cc(F)c2c(Nc3ccc(NC(=O)NCCC(C)(C)F)cc3)ncnc2c1 [Example 157] | 100 to 1000 | 10 to 100 | 100 to 1000 | 100 to 1000 | 100 to 1000 | – | –
13 | CC(C)(F)CCNC(=O)Nc1ccc(Nc2ncnc3cc(OCCCN4CCCC4)cc(F)c23)cc1 [Example 158] | 10 to 100 | ≤ 10 | ≤ 10 | 10 to 100 | 10 to 100 | ≤ 10 | ≤ 10
14 | CC(C)(F)CCNC(=O)Nc1ccc(Nc2ncnc3cc(OCCC4COC4)cc(F)c23)cc1 [Example 159] | 10 to 100 | ≤ 10 | 10 to 100 | 10 to 100 | 10 to 100 | – | –
15 | CC(C)(F)CCNC(=O)Nc1ccc(Nc2ncnc3cc(OC[C@H]4CCCO4)cc(F)c23)cc1 [Example 161] | 10 to 100 | ≤ 10 | ≤ 10 | 10 to 100 | 10 to 100 | ≤ 10 | 10 to 100
16 | CC(C)(F)CCNC(=O)Nc1ccc(Nc2ncnc3cc(OC[C@@H]4CCCO4)cc(F)c23)cc1 [Example 162] | 10 to 100 | ≤ 10 | 10 to 100 | 10 to 100 | 10 to 100 | ≤ 10 | 10 to 100
17 | COCCOc1cc(F)c2c(Nc3ccc(NC(=O)CC(=O)N(C(C)C)C(C)C)cc3)ncnc2c1 [Example 163] | 100 to 1000 | 100 to 1000 | 100 to 1000 | > 1000 | 100 to 1000 | – | –
18 | COCCOc1cc(F)c2c(Nc3ccc(NC(=O)CC(=O)N4CCC(F)(F)CC4)cc3)ncnc2c1 [Example 164] | 10 to 100 | 10 to 100 | 100 to 1000 | 100 to 1000 | 100 to 1000 | – | –
19 | COCCOc1cc(F)c2c(Nc3ccc(NC(=O)CC(=O)N4CCCC(F)(F)C4)cc3)ncnc2c1 [Example 165] | 10 to 100 | 10 to 100 | 10 to 100 | 100 to 1000 | 100 to 1000 | – | –
20 | COCCOc1cc(F)c2c(Nc3ccc(NC(=O)CC(=O)N4CCCC(C)(C)C4)cc3)ncnc2c1 [Example 166] | 10 to 100 | 10 to 100 | 10 to 100 | 10 to 100 | 10 to 100 | – | –
21 | COCCOc1cc(F)c2c(Nc3ccc(NC(=O)CC(=O)N4CCC4(C)C)cc3)ncnc2c1 [Example 167] | 10 to 100 | 10 to 100 | 10 to 100 | 100 to 1000 | 100 to 1000 | – | –
22 | COCCOc1cc(F)c2c(Nc3ccc(NC(=O)CC(=O)NC4CCC4(C)C)cc3)ncnc2c1 (stereo not drawn) [Example 168] | ≤ 10 | 10 to 100 | 10 to 100 | 10 to 100 | 10 to 100 | – | –
23 | COCCOc1cc(F)c2c(Nc3ccc(NC(=O)CC(=O)N4CCCC4C(F)(F)F)cc3)ncnc2c1 (stereo not drawn) [Example 169] | 10 to 100 | 10 to 100 | 10 to 100 | 100 to 1000 | 100 to 1000 | – | –
24 | COCCOc1cc(F)c2c(Nc3ccc(NC(=O)CC(=O)N4CCCC[C@@H]4C(F)(F)F)cc3)ncnc2c1 [Example 170] | 10 to 100 | 10 to 100 | 10 to 100 | 10 to 100 | 10 to 100 | – | –
25 | COCCOc1cc(F)c2c(Nc3ccc(NC(=O)CC(=O)N4CCCC[C@H]4C(F)(F)F)cc3)ncnc2c1 [Example 171] | 10 to 100 | 10 to 100 | 10 to 100 | 10 to 100 | ≤ 10 | – | –
26 | CN1CC[C@H](Oc2cc(F)c3c(Nc4ccc(NC(=O)NCCC(C)(C)F)cc4)ncnc3c2)C1 [Example 172] | 10 to 100 | 10 to 100 | 10 to 100 | 10 to 100 | 10 to 100 | – | –
27 | CN1CC[C@@H](Oc2cc(F)c3c(Nc4ccc(NC(=O)NCCC(C)(C)F)cc4)ncnc3c2)C1 [Example 173] | 10 to 100 | ≤ 10 | 10 to 100 | 10 to 100 | 10 to 100 | – | –
28 | CC(C)(F)CCNC(=O)Nc1ccc(Nc2ncnc3cc(OC4CCC4)cc(F)c23)cc1 [Example 174] | 100 to 1000 | ≤ 10 | 10 to 100 | 10 to 100 | 10 to 100 | – | –
29 | CC(C)(F)CCNC(=O)Nc1ccc(Nc2ncnc3cc(OC4COC4)cc(F)c23)cc1 [Example 175] | 10 to 100 | ≤ 10 | 10 to 100 | 10 to 100 | 10 to 100 | – | –
